How the values were obtained:
[1] = target: T1, glutamate-oxaloacetate transaminase 1 (GOT1) (Homo sapiens, UniProt P17174); test: MDH1-coupled enzyme assay, percent inhibition; assay type: biochemical
[2] = target: T1, glutamate-oxaloacetate transaminase 1 (GOT1); test: MDH1-coupled enzyme assay, […] h pre-incubation; assay type: biochemical

T1 sequence (P17174 2-413): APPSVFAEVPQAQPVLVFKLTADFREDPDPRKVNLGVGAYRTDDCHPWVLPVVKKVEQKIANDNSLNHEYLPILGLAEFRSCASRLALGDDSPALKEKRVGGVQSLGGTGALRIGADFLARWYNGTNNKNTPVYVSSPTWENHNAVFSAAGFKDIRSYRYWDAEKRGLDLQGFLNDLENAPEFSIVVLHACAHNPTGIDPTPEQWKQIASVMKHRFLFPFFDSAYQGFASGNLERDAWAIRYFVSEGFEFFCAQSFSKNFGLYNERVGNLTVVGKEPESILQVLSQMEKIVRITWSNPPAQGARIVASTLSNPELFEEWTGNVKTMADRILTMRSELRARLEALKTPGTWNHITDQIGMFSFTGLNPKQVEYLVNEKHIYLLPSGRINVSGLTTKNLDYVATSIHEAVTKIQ

| Compound | MDH1-coupled enzyme assay, percent inhibition [1] | IC50 [2] |
| --- | --- | --- |
| NOCC(=O)O [amino-oxyacetate] | The pan-transaminase inhibitor amino-oxyacetate (AOA) was used as a positive control | – |
| N[C@H]1Cc2ccccc2N(O)C1=O [PF-04859989] | – | 8 µM |

Source: paper PMC6981064 (Biochemical and biophysical research communications, 2019)
